Ends that are not written are not given here.

One data set deals with P388R cells. The settings on record: mice, same cancer model, 100 mg/kg/day (Pierré et al. 1992); cited from earlier work.
The conditions of data set [1]: trials for treatment of multidrug resistance (Stupp et al. 1998); cited from earlier work.
The test system of the next data set is cancer cells. The conditions noted are these: by means of an increase in the invasive potential of the cancer cells; cited from earlier work.
In a further data set the test system is mice. The data set can be described thus: Immunogenicity of di- and tetrapalmitoylated conjugates in liposomes: antibody detection by Dot Blot and antibody titer. The format is in vivo. The text has this:
In order to further understand the degree of immunogenicity of the conjugates according to the invention, two types of conjugates were produced and tested. The first type of conjugate corresponds to the synthetic sequences of the peptides derived from the extracellular loops of the murine P-170 protein, covalently coupled to four molecules of fatty acid containing a carbon chain of between C12 and C24, per molecule of peptide. The second type of conjugate is made up of a peptide coupled only to two molecules of fatty acid. This study is illustrated by means of a specific example of dipalmitoylated and tetrapalmitoylated conjugates.
Table III describes the sequences of the di- and tetrapalmitoylated conjugates corresponding to loops 1, 2 and 4 of the murine P-170 protein and also their immunogenic capacity measured through the detection of antibodies by the Dot Blot technique and also the antibody titer by fluorescence units. […] The mpp4 and mpp2 conjugates engender an immune response with an antibody titer in the region of 400 fluorescence units. […] In fact, the synthesis of this loop is very hard and long since there are many possible chemical terminations, or chemical rebridging which could explain the lack of immune response of this first batch of peptides. For the animal immunization trials, a further synthesis of the peptides, in particular of loop 1, was therefore carried out.
The conjugates according to the invention serving as antigenic molecules, diluted in PBS, are firstly deposited at ambient temperature onto nitrocellulose membranes. After 30 minutes, these antigenic molecules are blocked with 3 ml of a solution containing PBS-5% skim milk. The membranes are incubated for 2 hours at ambient temperature, without washing, with 24 μl of murine serum prediluted volume-for-volume with PBS, in 2 ml of PBS containing 1% of skim milk and 0.1% of tween 20. Said murine serum was taken during a period of 15 to 45 days after the third immunization. After three washes in PBS-1% skim milk-0.1% tween 20, the membranes are sequentially incubated for 1 hour at ambient temperature, in 3 ml of PBS-1% skim milk-0.1% tween 20 containing the peroxydase anti-mouse secondary antibody diluted to 1/3000, and then after 2 washes, in 3 ml of PBS-1% skim milk-0.1% tween 20. The membranes are then washed once for 10 minutes in PBS alone and kept in a refrigerator at 4° C. overnight, in 500 μl of PBS. A chemoluminescence peroxydase substrate (ECL™ kit, […] Pharmacie Biotech) is deposited at the surface of the membranes (0.125 ml/cm^2), and left for one minute, and the membranes are then drained off and placed in a “cold” cassette between 2 films of Saran®. The membranes are immediately exposed by autoradiography, the emitted light resulting from the reaction of oxidation of the luminol by the peroxydase being collected on KODAK X-OMAT films with varying times from a few minutes to 1 hour, depending on the strength of the signal. The antibody titers are estimated using a densitometer suitable for the above system. The sensitivity of the chemoluminescence reaction has a threshold for detection of the induced antibodies evaluated at 0.2 ng/ml under the experimental conditions.

The test system of a further data set is B6D2F1 mice. Put plainly: Immune response in vivo in B6D2F1 mice immunized with the vaccine preparations (anti-mpp1, mpp2, mpp4 antibody isotypes, Dot Blot). The conditions noted are these: further synthesis of the peptide; compared with mpp2 and mpp4. How it is done: The mice were immunized three times, two weeks apart, by intraperitoneal injection with 200 μl of vaccine composition. This experimental protocol is carried out for the four preparations on groups of nine B6D2F1 mice (Iffa Credo, L'Arbresle, France).
To quantify by Dot Blot the various immunoglobulins induced by the immunization, 100 μl of blood were taken, from each mouse, from the retroorbital sinus one day before the booster and 15 days after the final injection. Each blood sample was then centrifuged and the serum isolated was used for the quantification.
The conjugates according to the invention serving as antigenic molecules, diluted in PBS, are firstly deposited at ambient temperature onto nitrocellulose membranes. After 30 minutes, these antigenic molecules are blocked with 3 ml of a solution containing PBS-5% skim milk. The membranes are incubated for 2 hours at ambient temperature, without washing, with 24 μl of murine serum prediluted volume-for-volume with PBS, in 2 ml of PBS containing 1% of skim milk and 0.1% of tween 20. Said murine serum was taken during a period of 15 to 45 days after the third immunization. […] The sensitivity of the chemoluminescence reaction has a threshold for detection of the induced antibodies evaluated at 0.2 ng/ml under the experimental conditions. […]

The mark [2] stands for this setting: mice injected with liposomes containing the conjugate, first peptide synthesis.

In the case of `C=CCNc1nc(NCC=C)nc(N2CCC(NCC(c3ccc(F)cc3)c3ccc(F)cc3)CC2)n1` [S9788, 6-[4-[2,2-di-(4-fluorophenyl)ethylamino]-1-piperidinyl]-N,N′-di-2-propenyl-1,3,5-triazine-2,4-diamine], the increase in survival with P388R cells is reported as 49%. In data set [1], the “toxicity limiting use in clinical trials” value was “cardiac toxicity, ventricular arrhythmia and torsade de pointe”.

As for `OCCN1CCN(CC/C=C2\c3ccccc3Sc3ccc(C(F)(F)F)cc32)CC1` [trans-flupenthixol], the effect on mortality entry with cancer cells is given as “can accelerate mortality”. Turning to “G-KVLTSFTNKELQAYAK-G-K-NH2 (GKVLTSFTNKELQAYAKGK-NH2; also: two palmitic acids; listed as Mus musculus) [mpp′2]”, the Ac titer fluorescence in the data set with mice (setting [2]) is less than 10 fluorescence units. As for “G-SRDDDMETKRQNEN-G-K-NH2 (GSRDDDMETKRQNENGK-NH2; also: two palmitic acids; listed as Mus musculus) [mpp′4]”, the Ac titer fluorescence in the data set on mice (setting [2]) is 100 fluorescence units. For the same compound, the “antibody titer relative to the titer induced by mpp4” value with mice (same sequence with two versus four palmityl residues) is “four times lower”.

With “K-G-GNMTDSFTKAEASILPSITNQSGPNSTLIISNSSLEEE-G-K-K-NH2 (KGGNMTDSFTKAEASILPSITNQSGPNSTLIISNSSLEEEGKK-NH2; also: four palmitic acids; listed as Mus musculus) [mpp1]”, in the data set with mice (setting [2]), the Ac titer fluorescence is given as less than 10 fluorescence units and the “Detection of antibodies by Dot Blot” value is listed as “no antibody was detected”. For the same compound, the “antibody titers induced by the conjugate” value in the data set on B6D2F1 mice was “significant and comparable in value to the antibody titers detected for the mpp2 and mpp4 conjugates”.

The record behind these values is patent publication US8409580B2, “Therapeutic vaccine targeted against P-glycoprotein 170 for inhibiting multidrug resistance in the treatment of cancers” (AC Immune SA, priority 2003, dated 2013).
